Data taken from patent publication US20160101188A1, “NOVEL NANOCARRIER DELIVERED CANCER CHEMOTHERAPEUTIC AGENTS” (UNIVERSITY OF CINCINNATI, priority 2013, published 2016).
Read-outs that look alike come from different tables or passages of the source.

System: MCF7 (breast cancer) cells
Assay: MTT cytotoxicity assay in MCF7 breast cancer cells
Assay type: cell-based
Conditions: 65 hours incubation, read-out: IC50, viability of MCF7 cells from the MTT assay
Experimental: The cyctoxicity of compounds was determined in MCF 7 (breast cancer) cells.
MCF7 cells were grown in RPMI 1640 media with 10 nM estrogen and 1 mM insulin. Cells were tyripsinized and resuspended at a density of 2.2×10^4 cells per mL. 500 μL of this suspension was added to each well in a 24 well plate. The plates were incubated at 37° C. and 5% CO2 atmosphere overnight. The media was changed, and plates were dosed in triplicate with compound dissolved in DMSO. Cells were dosed not to exceed 0.5% DMSO in solution. Cells were dosed to a final concentration of 100, 50, 25, 12.5, and 6.25 μM of compound. 5-Flurouracil was used as a positive control and dosed in the same manner. Plates were incubated for 65 hours prior to the addition of MTT solution. 500 μL of a 193 μg/mL MTT and media solution was added to each well. Plates were incubated for 3 hours. The MTT solution was removed and 500 μL of DMSO was added to each well. Cells were imaged using GS 800 Bio Rad scanner and Quality One Software. IC50 curves were determined by plotting viability verses compound concentration. Kaleidagraph software was used to calculate the R value for each logarithmic curve fitting.

Row | SMILES | IC50 [µM] | IC50 (Homo sapiens, MCF7, 65 h) [µM]
1 | O=c1[nH]c(=O)n([C@H]2C[C@H](O)[C@@H](CO)O2)cc1COC(c1ccccc1[N+](=O)[O-])C1CCCCC1 (stereo partly shown) [PRW-1-18, 5-[1-(2-nitro)phenyl-1-(cyclohexyl)methoxymethyl]-2′-deoxyuridine] | 63 | –
2 | COc1ccc(C(OCc2cn([C@H]3C[C@H](O)[C@@H](CO)O3)c(=O)[nH]c2=O)C(C)(C)C)cc1 (stereo partly shown) [KB-1-55, 5-[1-(4-methoxyphenyl)-2,2-(dimethyl)propoxymethyl]-2′-deoxyuridine] | 183 | –
3 | CC(C)(C)C(OCc1cn([C@H]2C[C@H](O)[C@@H](CO)O2)c(=O)[nH]c1=O)c1c([N+](=O)[O-])cccc1[N+](=O)[O-] (stereo partly shown) [MPB-1-55, 5-[1-(2,6-dinitrophenyl)-2,2-(dimethyl)propoxymethyl]-2′-deoxyuridine] | 96 | –
4 | CC(C)C(OCc1c[nH]c(=O)[nH]c1=O)c1ccccc1 (stereo not shown) [KB-1-1, 5-[1-phenyl-2-(methyl)propoxymethyl]uracil] | – | > 200
5 | CC(C)(C)CC(OCc1cn([C@H]2C[C@H](O)[C@@H](CO)O2)c(=O)[nH]c1=O)c1ccccc1[N+](=O)[O-] (stereo partly shown) [KB-1-91, 5-[1-(2-nitrophenyl)-3,3-(dimethyl)butoxymethyl]-2′-deoxyuridine] | 62 | –
6 | CC(C)(C)C(OCc1cn([C@H]2C[C@H](O)[C@@H](CO)O2)c(=O)[nH]c1=O)c1ccccc1C#N (stereo partly shown) [VAL-1-28, 5-[1-(2-cyanophenyl)-2,2-(dimethyl)propoxymethyl]-2′-deoxyuridine] | 106 | –
7 | CC(C)(C)C(OCc1cn([C@H]2C[C@H](O)[C@@H](CO)O2)c(=O)[nH]c1=O)c1ccc(C#C[Si](C)(C)C)cc1[N+](=O)[O-] (stereo partly shown) [VAL-1-49, 5-[1-(4-{trimethylsilyl}acetylenyl-2-nitrophenyl)-2,2-(dimethyl)-1-propoxymethyl]-2′-deoxyuridine] | 29 ± 3 | –
8 | CC(OCc1cn([C@H]2C[C@H](O)[C@@H](CO)O2)c(=O)[nH]c1=O)c1ccccc1[N+](=O)[O-] (stereo partly shown) [VAL-1-25, 5-[1-(2-nitrophenyl)ethoxymethyl]-2′-deoxyuridine] | – | ~170
9 | CC(C)COC(c1ccccc1)c1cn([C@H]2C[C@H](O)[C@@H](CO)O2)c(=O)[nH]c1=O (stereo partly shown) [MPB-1-25, 5-[1-(phenyl)-2-(methyl)-1-propoxymethyl]-2′-deoxyuridine] | – | > 150
10 | O=c1[nH]c(=O)n([C@H]2C[C@H](O)[C@@H](CO)O2)cc1COC(c1ccccc1)c1ccccc1 [KB-1-10, 5-[(diphenyl)methoxymethyl]-2′-deoxyuridine] | – | 160
11 | Cc1ccccc1C(OCc1cn([C@H]2C[C@H](O)[C@@H](CO)O2)c(=O)[nH]c1=O)C(C)(C)C (stereo partly shown) [KB-1-100, 5-[1-(2-methyl)phenyl-2,2-(dimethyl)propoxymethyl]-2′-deoxyuridine] | 121 | –
12 | CC(C)(C)C(OCc1cn([C@H]2C[C@H](O)[C@@H](CO)O2)c(=O)[nH]c1=O)c1ccccc1CBr (stereo partly shown) [KB-1-135, 5-[1-(2-bromomethyl)phenyl-2,2-(dimethyl)propoxymethyl]-2′-deoxyuridine] | 72 | –
13 | CC(C)(C)C(OCc1cn([C@H]2C[C@H](O)[C@@H](CO)O2)c(=O)[nH]c1=O)c1ccccc1Cl (stereo partly shown) [MPB-1-49, 5-[1-(2-chlorophenyl)-2,2-(dimethyl)propoxymethyl]-2′-deoxyundine] | 80 | –
14 | CC(C)(C)C(OCc1cn([C@H]2C[C@H](O)[C@@H](CO)O2)c(=O)[nH]c1=O)c1ccc(C#CCOc2ccc3ccc(=O)oc3c2)cc1[N+](=O)[O-] (stereo partly shown) [MPB-1-41, 5-[1-(4-{3-(7-coumarin)oxy}proyn-1-yl-2-nitrophenyl)-2,2-(dimethyl)propoxymethyl]-2′-deoxyuridine] | 16 ± 3 | –
15 | O=c1[nH]c(=O)n([C@H]2C[C@H](O)[C@@H](CO)O2)cc1COC(c1ccccc1)c1c([N+](=O)[O-])cccc1[N+](=O)[O-] (stereo partly shown) [TZ-1-13F3, 5-[{(2,6-dinitrophenyl)phenyl}methoxymethyl]-2′-deoxyuridine] | 44 | –
16 | CC(C)(C)CC(OCc1c[nH]c(=O)[nH]c1=O)c1ccccc1 (stereo not shown) [SL-1-7, 5-[1-phenyl-3,3-(dimethyl)butoxymethyl]uracil] | 37 | –
